For eight compounds, mutagenic call and call results are on record in PubChem BioAssay AID1259408 (Genetic Toxicology Data Bank (GENE-TOX), 2018).

The source made the active and inactive calls. No rule for the calls is given here.

In this data set the test system is GENE-TOX genotoxicity assays, various organisms and cells. The data set is described as follows: GENE-TOX mutagenicity studies.
Setting [1] is: Species/Cell Type: Neurospora crassa, Assay Type: Aneuploidy, chromosome aberrations, Assay Code: NEN-, Evaluation Type: Evaluation A (Pre-1980).
[2] abbreviates: Species/Cell Type: Salmonella typhimurium (one or more of the five standard strains: TA98, TA100, TA1535, TA1537, and TA1538), Assay Type: Histidine reverse gene mutation, Ames assay, Assay Code: SAL-, Evaluation Type: Evaluation A (Pre-1980).

Take `CS(C)=O`: the mutagenic call is “active; positive” (Species/Cell Type: Aspergillus nidulans, Assay Type: Aneuploidy, chromosome aberrations, Assay Code: ASN+, Evaluation Type: Evaluation A (Pre-1980)); “no conclusion” (Species/Cell Type: Aspergillus nidulans, Assay Type: Mitotic recombination, Assay Code: ASGT, Evaluation Type: Evaluation A (Pre-1980)); “no conclusion” (Species/Cell Type: Bacillus subtilis (H17 vs M45), Assay Type: Rec-assay, spot test, DNA effects (bacterial DNA repair), Assay Code: REWT, Evaluation Type: Evaluation A (Pre-1980)); “inactive; negative” (Species/Cell Type: Drosophila melanogaster, Assay Type: Aneuploidy, whole sex chromosome loss, chromosome aberrations, Assay Code: DAC-M, Evaluation Type: Evaluation A (Pre-1980)); “inactive; negative” (Species/Cell Type: Drosophila melanogaster, Assay Type: Sex-linked recessive lethal gene mutation, Assay Code: SRL-, Evaluation Type: Evaluation A (Pre-1980)); “no conclusion” (Species/Cell Type: Drosophila melanogaster, Sex: Male, Assay Type: Heritable translocation test, chromosome aberrations, Assay Code: DHTT, Evaluation Type: Evaluation A (Pre-1980)). Further, the mutagenic call was “inactive; negative” (Species/Cell Type: Escherichia coli polA (W3110 vs P3478), Assay Type: Rec-assay, DNA effects (bacterial DNA repair), Assay Code: RE2-, Evaluation Type: Evaluation A (Pre-1980)); “no conclusion” (Species/Cell Type: Escherichia coli polA (W3119 vs P3478), Assay Type: Rec-assay, DNA effects (bacterial DNA repair), Assay Code: RE1T, Evaluation Type: Evaluation A (Pre-1980)); “inactive; negative” (Species/Cell Type: Fischer rat embryo (RLV/1706) cells, Assay Type: Cell transformation, viral enhanced, Assay Code: CTR-, Evaluation Type: Evaluation A (Pre-1980)); “no conclusion” (Species/Cell Type: Human lymphocytes, Assay Type: Sister-chromatid exchange (SCE) in vitro, Assay Code: SCLT, Evaluation Type: Evaluation B (Post-1980)); “no conclusion” (Species/Cell Type: Human, Assay Type: Sister-chromatid exchange (SCE) in vitro, Assay Code: SC1T, Evaluation Type: Evaluation B (Post-1980)); “inactive; negative” (Species/Cell Type: Mouse embryo (AKR/ME) cells, Assay Type: Cell transformation, Assay Code: CTK-, Evaluation Type: Evaluation A (Pre-1980)). Further, the mutagenic call reads like this: under setting [1], “inactive; negative”; (Species/Cell Type: Nonhuman, Assay Type: Sister-chromatid exchange (SCE) in vitro, Assay Code: SC2-, Evaluation Type: Evaluation A (Pre-1980)) “inactive; negative”; (Species/Cell Type: Nonhuman, Assay Type: Sister-chromatid exchange (SCE) in vivo, Assay Code: SC3+, Evaluation Type: Evaluation B (Post-1980)) “active; positive”; (Species/Cell Type: Rodents, Sex: Male, Assay Type: Dominant lethal test, Assay Code: DLTT, Evaluation Type: Evaluation A (Pre-1980)) “no conclusion”; (Species/Cell Type: Saccharomyces cerevisiae, Assay Type: Mitotic recombination or gene conversion, Assay Code: YEC+, Evaluation Type: Evaluation A (Pre-1980)) “active; positive”; under setting [2], “inactive; negative”. Further, the mutagenic call (Species/Cell Type: Salmonella typhimurium, Assay Type: Forward and reverse gene mutation, host-mediated assay, Assay Code: HMA-, Evaluation Type: Evaluation A (Pre-1980)) is “inactive; negative”; the mutagenic call (Species/Cell Type: Syrian hamster embryo (SHE) cells, Assay Type: Cell transformation, clonal assay, Assay Code: CTC-, Evaluation Type: Evaluation A (Pre-1980)) is “inactive; negative”. Besides, where the note is “Species/Cell Type: Nonhuman, Assay Type: In vivo carcinogenicity studies, Assay Code: CCGT, Evaluation Type: Evaluation A (Pre-1980)”, the call is “no conclusion”.
For `CCCCN(CCC(C)O)N=O` (configuration not stated), the mutagenic call (Species/Cell Type: Salmonella typhimurium (one or more of the five standard strains: TA98, TA100, TA1535, TA1537, and TA1538), Assay Type: Histidine reverse gene mutation, Ames assay, Assay Code: SAL+, Evaluation Type: Evaluation A (Pre-1980)) is “active; positive”.
As to `OCCO`, the mutagenic call is “no conclusion” (Species/Cell Type: Drosophila melanogaster, Assay Type: Aneuploidy, sex chromosome gain, chromosome aberrations, Assay Code: DAGT, Evaluation Type: Evaluation A (Pre-1980)); “no conclusion” (Species/Cell Type: Drosophila melanogaster, Assay Type: Aneuploidy, whole sex chromosome loss, chromosome aberrations, Assay Code: DACT, Evaluation Type: Evaluation A (Pre-1980)); “inactive; negative” under setting [1]; “inactive; negative” under setting [2]; “inactive; negative” (Species/Cell Type: Syrian hamster embryo (SA7/SHE) cells, Assay Type: Cell transformation, viral enhanced, Assay Code: CT7-, Evaluation Type: Evaluation A (Pre-1980)).
Consider `CC(C)NCC(O)COc1ccc(CC(N)=O)cc1` (configuration not stated), for which, under “Species/Cell Type: Mammalian polychromatic erythrocytes, Assay Type: Micronucleus test, chromosome aberrations, Assay Code: MNTT, Evaluation Type: Evaluation B (Post-1980)”, the mutagenic call is “no conclusion”.
`CCNC(=O)/C=C(C)/C=C/C=C(C)/C=C/c1c(C)cc(OC)c(C)c1C`: the mutagenic call (Species/Cell Type: Mouse (C3H/10T1/2) cells, Assay Type: Cell transformation, Assay Code: CTH-, Evaluation Type: Evaluation A (Pre-1980)) is “inactive; negative”.
With `CN(CCCC(=O)O)N=O`, the mutagenic call (Species/Cell Type: Salmonella typhimurium (one or more of the five standard strains: TA98, TA100, TA1535, TA1537, and TA1538), Assay Type: Histidine reverse gene mutation, Ames assay, Assay Code: SALT, Evaluation Type: Evaluation A (Pre-1980)) was “no conclusion”.
For `CCOC(=O)N1CC1`, the mutagenic call (Species/Cell Type: Schizosaccharomyces pombe, Assay Type: Reverse gene mutation, Assay Code: YEZ+, Evaluation Type: Evaluation A (Pre-1980)) was “active; positive”.
Consider `COC(=O)N/N=C/c1c[n+]([O-])c2ccccc2[n+]1[O-]`, for which, where the note is “Species/Cell Type: Mammalian polychromatic erythrocytes, Assay Type: Micronucleus test, chromosome aberrations, Assay Code: MNT+, Evaluation Type: Evaluation B (Post-1980)”, the mutagenic call is “active; positive”.
